Counter-ions that a name gives are not always drawn.

Usually IC50 stands for the concentration needed to halve the response being measured. Low readings indicate greater potency, high ones weaker potency.

The assay addresses hATX/ENPP2 (Homo sapiens, UniProt Q13822). Put plainly: hATX/ENPP2 biochemical assay using 16:0-LPC as substrate (Amplex Red/choline oxidase/HRP fluorescence). To be noted: hENPP2 2.5 nM, LPC (16:0) substrate. On the procedure: The enzyme is diluted in 50 mM Tris-HCl pH 8.0, 140 mM NaCl, 5 mM CaCl2, 0.01% Triton X-100 in a total volume of 5 μL. The aqueous solution of enzyme is added to the wells and incubated with different concentrations of the compounds at room temperature for 15 min. The reaction is started by the addition of 5 μL of 80 μM LPC (16:0) and 10 μL of the detection mixture containing 200 μM Amplex Red, 10 U/mL choline oxidase and 4 U/mL HRP. Fluorescence at 590 nm was measured kinetically with excitation at 530 nm. The slope of the curve (from 60 to 70 min of the reaction time) was used to calculate the compounds' IC50 values.
`CCc1nc2ccc(-c3cnc(NCC4CNC4)nc3)cn2c1N(C)c1nc(-c2ccc(F)cc2)c(C#N)s1` [38 (formate salt), 2-((6-(2-((azetidin-3-ylmethyl)amino)pyrimidin-5-yl)-2-ethylimidazo[1,2-a]pyridin-3-yl)(methyl)amino)-4-(4-fluorophenyl)thiazole-5-carbonitrile formate]: the IC50 is over 200 nM. In the case of `CCc1nc2ccc(-c3cnc(N4CCN(C(=O)NC5CNC5)CC4)nc3)cn2c1N(C)c1nc(-c2ccc(F)cc2)c(C#N)s1` [66 (hydrochloride salt), N-(azetidin-3-yl)-4-(5-(3-((5-cyano-4-(4-fluorophenyl)thiazol-2-yl)(methyl)amino)-2-ethylimidazo[1,2-a]pyridin-6-yl)pyrimidin-2-yl)piperazine-1-carboxamide hydrochloride] it was at most 20 nM; in that of `CCc1nc2ccc(-c3cnc(N4CC(C(=O)NC5CNC5)C4)nc3)cn2c1N(C)c1nc(-c2ccc(F)cc2)c(C#N)s1` [70 (hydrochloride salt), N-(azetidin-3-yl)-1-(5-(3-((5-cyano-4-(4-fluorophenyl)thiazol-2-yl)(methyl)amino)-2-ethylimidazo[1,2-a]pyridin-6-yl)pyrimidin-2-vl) azetidine-3-carboxamide hydrochloride], 20 to 200 nM.

The compound `CCc1nc2ccc(-c3cnc(N4CC(C(=O)NC5CCNCC5)C4)nc3)cn2c1N(C)c1nc(-c2ccc(F)cc2)c(C#N)s1` [71 (hydrochloride salt), 1-(5-(3-((5-cyano-4-(4-fluorophenyl)thiazol-2-yl)(methyl)amino)-2-ethylimidazo[1,2-a]pyridin-6-yl)pyrimidin-2-yl)-N-(piperidin-4-yl) azetidine-3-carboxamide hydrochloride] showed an IC50 of 20 to 200 nM. Compound `CCc1nc2ccc(-c3cnc(N4CC(NC5CN(C)C5)C4)nc3)cn2c1N(C)c1nc(-c2ccc(F)cc2)c(C#N)s1` [80 (hydrochloride salt), 2-((2-ethyl-6-(2-(3-((I-methylazetidin-3-yl)amino)azetidin-1-yl)pyrimidin-5-yl)imidazo[1,2-a]pyridin-3-yl)(methyl)amino)-4-(4-fluorophenyl)thiazole-5-carbonitrile hydrochloride] yielded an IC50 of 20 to 200 nM. The result for `CCc1nc2ccc(-c3cnc(N4CC(NC(=O)[C@@H]5C[C@@H](O)CN5C)C4)nc3)cn2c1N(C)c1nc(-c2ccc(F)cc2)c(C#N)s1` [81 (hydrochloride salt), (2S,4R)—N-(1-(5-(3-((5-cyano-4-(4-fluorophenyl)thiazol-2-yl)(methyl)amino)-2-ethylimidazo[1,2-a]pyridin-6-yl)pyrimidin-2-yl)azetidin-3-yl)-4-hydroxy-1-methyl pyrrolidine-2-carboxamide hydrochloride] reads 20 to 200 nM. The result for `CCc1nc2ccc(-c3cnc(N4CC(N)C4)nc3)cn2c1N(C)c1nc(-c2ccc(F)cc2)c(C#N)s1` [Compound 3, 2-((6-(2-(3-aminoazetidin-1-yl)pyrimidin-5-yl)-2-ethylimidazo[1,2-a]pyridin-3-yl)(methyl)amino)-4-(4-fluorophenyl)thiazole-5-carbonitrile] reads 20 to 200 nM; that for `CCc1nc2ccc(-c3cnc(N4CCNCC4)nc3)cn2c1N(C)c1nc(-c2ccc(F)cc2)c(C#N)s1` [Compound 4, 2-((2-ethyl-6-(2-(piperazin-1-yl)pyrimidin-5-yl)imidazo[1,2-a]pyridin-3-yl)(methyl)amino)-4-(4-fluorophenyl)thiazole-5-carbonitrile], 20 to 200 nM; that for `CCc1nc2ccc(-c3cnc(N4CCN(C(=O)[C@@H]5C[C@@H](O)CN5)CC4)nc3)cn2c1N(C)c1nc(-c2ccc(F)cc2)c(C#N)s1` [Compound 5, 2-((2-ethyl-6-(2-(4-((2S,4R)-4-hydroxypyrrolidine-2-carbonyl)piperazin-1-yl)pyrimidin-5-yl)imidazo[1,2-a]pyridin-3-yl)(methyl)amino)-4-(4-fluorophenyl)thiazole-5-carbonitrile], at most 20 nM. In turn, `CCc1nc2ccc(-c3cnc(N4CCN(C(=O)[C@H]5C[C@@H](O)CN5)CC4)nc3)cn2c1N(C)c1nc(-c2ccc(F)cc2)c(C#N)s1` [Compound 6, 2-((2-ethyl-6-(2-(4-((2R,4R)-4-hydroxypyrrolidine-2-carbonyl)piperazin-1-yl)pyrimidin-5-yl)imidazo[1,2-a]pyridin-3-yl) (methyl)amino)-4-(4-fluorophenyl)thiazole-5-carbonitrile] yielded an IC50 of at most 20 nM. For the compound `CCc1nc2ccc(-c3cnc(N4CCN(C(=O)[C@@H]5C[C@H](O)CN5)CC4)nc3)cn2c1N(C)c1nc(-c2ccc(F)cc2)c(C#N)s1` [Compound 7, 2-((2-ethyl-6-(2-(4-((2S,4S)-4-hydroxypyrrolidine-2-carbonyl)piperazin-1-yl)pyrimidin-5-yl)imidazo[1,2-a]pyridin-3-yl)(methyl)amino)-4-(4-fluorophenyl) thiazole-5-carbonitrile], the IC50 is at most 20 nM. Regarding `CCc1nc2ccc(-c3cnc(N4CCN(C(=O)[C@H]5C[C@H](O)CN5)CC4)nc3)cn2c1N(C)c1nc(-c2ccc(F)cc2)c(C#N)s1` [Compound 8, 2-((2-ethyl-6-(2-(4-((2R,4S)-4-hydroxypyrrolidine-2-carbonyl)piperazin-1-yl)pyrimidin-5-yl)imidazo[1,2-a]pyridin-3-yl)(methyl)amino)-4-(4-fluorophenyl)thiazole-5-carbonitrile], the half-maximal inhibitory concentration (IC50) is at most 20 nM. Consider `CCc1nc2ccc(-c3cnc(N4CCN(C(=O)C5CNC5)CC4)nc3)cn2c1N(C)c1nc(-c2ccc(F)cc2)c(C#N)s1` [Compound 9, 2-((6-(2-(4-(azetidine-3-carbonyl)piperazin-1-yl)pyrimidin-5-yl)-2-ethylimidazo[1,2-a]pyridin-3-yl)(methyl)amino)-4-(4-fluorophenyl)thiazole-5-carbonitrile], for which the IC50 was at most 20 nM.

Compound `CCc1nc2ccc(-c3cnc(C(=O)N4CC(O)C4)nc3)cn2c1N(C)c1nc(-c2ccc(F)cc2)c(C#N)s1` [Compound 11, 2-((2-ethyl-6-(2-(3-hydroxyazetidine-1-carbonyl)pyrimidin-5-yl)imidazo[1,2-a]pyridin-3-yl)(methyl)amino)-4-(4-fluorophenyl)thiazole-5-carbonitrile] came in with an IC50 of 20 to 200 nM. The result for `CCc1nc2ccc(-c3cnc(C(=O)N4CC(NC5CC5)C4)nc3)cn2c1N(C)c1nc(-c2ccc(F)cc2)c(C#N)s1` [Compound 12, 2-((6-(2-(3-(cyclopropylamino)azetidine-1-carbonyl)pyrimidin-5-yl)-2-ethylimidazo[1,2-a]pyridin-3-yl)(methyl)amino)-4-(4-fluorophenyl)thiazole-5-carbonitrile] reads 20 to 200 nM. The result for `CCc1nc2ccc(-c3cnc(C(=O)N4CC(NC5CCC5)C4)nc3)cn2c1N(C)c1nc(-c2ccc(F)cc2)c(C#N)s1` [Compound 13, 2-((6-(2-(3-(cyclobutylamino)azetidine-1-carbonyl)pyrimidin-5-yl)-2-ethylimidazo[1,2-a]pyridin-3-yl)(methyl)amino)-4-(4-fluorophenyl)thiazole-5-carbonitrile] reads over 200 nM. With `CCc1nc2ccc(-c3cnc(C(=O)N4CC(N5CCC5)C4)nc3)cn2c1N(C)c1nc(-c2ccc(F)cc2)c(C#N)s1` [Compound 14, 2-((6-(2-([1,3′-biazetidine]-1′-carbonyl)pyrimidin-5-yl)-2-ethylimidazo[1,2-a]pyridin-3-yl)(methyl)amino)-4-(4-fluorophenyl) thiazole-5-carbonitrile], the IC50 is 20 to 200 nM. In the case of `CCc1nc2ccc(-c3cnc(C(=O)N4CCC(O)CC4)nc3)cn2c1N(C)c1nc(-c2ccc(F)cc2)c(C#N)s1` [Compound 15, 2-((2-ethyl-6-(2-(4-hydroxypiperidine-1-carbonyl)pyrimidin-5-yl)imidazo[1,2-a]pyridin-3-yl)(methyl)amino)-4-(4-fluorophenyl)thiazole-5-carbonitrile] it was 20 to 200 nM. Regarding `CCc1nc2ccc(-c3cnc(C(=O)NC4(C#N)CC4)nc3)cn2c1N(C)c1nc(-c2ccc(F)cc2)c(C#N)s1` [Compound 16, 5-(3-((5-cyano-4-(4-fluorophenyl)thiazol-2-yl)(methyl)amino)-2-ethylimidazo[1,2-a]pyridin-6-yl)-N-(1-cyanocyclopropyl)pyrimidine-2-carboxamide], the half-maximal inhibitory concentration (IC50) is 20 to 200 nM. The result for `CCc1nc2ccc(-c3cnc(N4CCC(NC5(C#N)CC5)CC4)nc3)cn2c1N(C)c1nc(-c2ccc(F)cc2)c(C#N)s1` [Compound 17, 2-((6-(2-(4-((1-cyanocyclopropyl)amino)piperidin-1-yl)pyrimidin-5-yl)-2-ethylimidazo[1,2-a]pyridin-3-yl)(methyl)amino)-4-(4-fluorophenyl)thiazole-5-carbonitrile] reads 20 to 200 nM. The result for `CCc1nc2ccc(-c3cnc(N4CCC(NC5(CO)CC5)CC4)nc3)cn2c1N(C)c1nc(-c2ccc(F)cc2)c(C#N)s1` [Compound 18, 2-((2-ethyl-6-(2-(4-((1-(hydroxymethyl)cyclopropyl)amino)piperidin-1-yl)pyrimidin-5-yl)imidazo[1,2-a]pyridin-3-yl) (methyl)amino)-4-(4-fluorophenyl)thiazole-5-carbonitrile] reads at most 20 nM; that for `CCc1nc2ccc(-c3cnc(N4CCC(NC(=O)C5(O)CC5)CC4)nc3)cn2c1N(C)c1nc(-c2ccc(F)cc2)c(C#N)s1` [Compound 19, N-(1-(5-(3-((5-cyano-4-(4-fluorophenyl)thiazol-2-yl)(methyl)amino)-2-ethylimidazo[1,2-a]pyridin-6-yl)pyrimidin-2-yl)piperidin-4-yl)-1-hydroxycyclopropane-1-carboxamide], at most 20 nM.
